Assays:
[1] = system: OVCAR3 monospheroids; test: Response to carboplatin chemotherapy, MTS viability, monospheroids; type: cell-based
Description: (§1) Spheroid formation on 384-well hanging drop arrays. OvCa monospheroids or OvCa/macrophage heterospheroids were formed on a 384-well hanging drop array following well-established protocols. OvCa monospheroids were initiated with 100 cells in a 20 μL drop of growth medium. To create OvCa/macrophage heterospheroids, the hanging drop platform was first leveraged to differentiate THP-1 monocytes to M0 macrophages by phorbol ester exposure20. Following a 3-day differentiation, macrophages were harvested and mixed with OvCa cells (50:50) to create heterospheroids. Monospheroid or heterospheroid formation was visually confirmed using phase contrast microscopy at day 4.
(§2) Response to chemotherapy. Carboplatin (MedChemExpress, Monmouth Junction, NJ) was dissolved by sonication in sterile PBS at a stock concentration of 5 mg/mL. OVCAR3 monospheroids or OVCAR3/macrophage heterospheroids formed over 4 days were treated with 0-500 μM carboplatin and incubated for 2 days/48 hours. An MTS assay was then used to determine the percent cell viability in carboplatin-treated spheroids compared to untreated controls. IC50 values were calculated with the GraphPad Prism normalized log (inhibitor) variable slope nonlinear fit function.
(§3) siSIRPα LNP immune checkpoint treatment. Mono-or hetero-spheroids were treated with 25 nM siSIRPα LNP on day 2 in hanging drop culture. LNP ability to reduce both macrophage SIRPα expression and OvCa metastatic behavior were evaluated over 4 more days.

[2] = system: OVCAR3/macrophage heterospheroids; test: Response to carboplatin chemotherapy, MTS viability, heterospheroids; type: cell-based
Description: as §1, §2, §3

N.N.O=C([O-])C1(C(=O)[O-])CCC1.[Pt+2] [carboplatin]
IC50 ([1]; OVCAR3 monospheroids, carboplatin 0-500 μM, FIG. 1B): 114 µM | IC50 ([1]; monospheroids after siSIRPα LNP, FIG. 15A): 272 µM | IC50 ([1]; monospheroids, control, 0-500 μM for 48 hours, MTS, FIG. 10C/15A): 218 µM | IC50 ([2]; OVCAR3/THP1 OvCa/MP hetero-spheroids, no LNP, FIG. 1B/6B): 536 µM | IC50 ([2]; OvCa/MP hetero-spheroids treated with siSIRPα-LNP, FIG. 6B): 213 µM | IC50 ([2]; heterospheroids with 25 nM siSIRPα LNP treatment, FIG. 14B): 321 ± 54.6 µM | IC50 ([2]; heterospheroids with negative control (scramble) siRNA LNP, FIG. 15C): 405 µM | IC50 ([2]; heterospheroids, no treatment, 0-500 μM for 48 hours, MTS, FIG. 10C/14B/15C): 368 µM

— patent publication US20250361511A1, “NANOPARTICLE COMPOSITIONS CONTAINING SIRP-alpha siRNA FOR TREATMENT OF CANCER” (The Texas A&M University System, priority 2024, published 2025)
